# According to PubChem BioAssay AID1645865 (Buhrlage Lab, Dana-Farber Cancer Institute and Novartis …, 2021):
# The source made the active and inactive calls.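 The calls were made as follows: active = maximal inhibition of the USP30 enzyme reaching 30% or more across the dose series; inactive = the rest.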
# Target: Ubiquitin carboxyl-terminal hydrolase 30 (Homo sapiens) (UniProt Q70CQ3)
# Assay: ubiquitin-specific protease 30 DUB inhibitors, concentration-effect, biochemical, validation of primary actives (AID 1645865)
# Conditions: purified USP30, Ub-rhodamine cleavage, fluorescence, 2 h
# Ubiquitin carboxyl-terminal hydrolase 30 (Homo sapiens), sequence (Q70CQ3 whole entry, looked up): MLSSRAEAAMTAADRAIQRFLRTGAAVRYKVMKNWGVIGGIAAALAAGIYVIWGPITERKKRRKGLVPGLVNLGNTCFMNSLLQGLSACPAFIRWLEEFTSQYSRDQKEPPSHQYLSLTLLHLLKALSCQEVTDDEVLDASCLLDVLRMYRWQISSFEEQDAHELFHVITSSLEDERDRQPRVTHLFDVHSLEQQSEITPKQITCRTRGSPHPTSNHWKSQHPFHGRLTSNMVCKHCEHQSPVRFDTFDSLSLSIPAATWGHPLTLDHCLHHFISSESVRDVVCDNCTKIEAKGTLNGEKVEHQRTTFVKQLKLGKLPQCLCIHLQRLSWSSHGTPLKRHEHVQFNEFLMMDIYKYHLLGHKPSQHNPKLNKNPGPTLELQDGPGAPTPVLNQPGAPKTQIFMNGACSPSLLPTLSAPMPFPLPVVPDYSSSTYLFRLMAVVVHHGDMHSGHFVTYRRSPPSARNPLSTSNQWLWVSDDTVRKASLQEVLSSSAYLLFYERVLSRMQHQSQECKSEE
row,SMILES,IC50
1,O=C(NCc1ccc(-c2nc3cnccc3o2)cc1)c1cc2ccccc2o1,2.99 µM
2,Cn1cccc1C(=O)N1CCCC2(C1)Nc1cccnc1NC2=NC1CCCC1 (configuration not stated),> 50 µM (inactive)
3,CC1(C)CC(=O)C2=C(C1)Nc1ccccc1N(C(=O)C(F)(F)F)C2c1cccs1 (configuration not stated),> 50 µM (inactive)
4,COc1ccc(C(=O)CSc2ccc3nnc(CCNC(=O)c4ccc(OC)cc4)n3n2)cc1,> 50 µM (inactive)
5,Cc1ccccc1C(=O)Nc1ccc(Cc2ccc(NC(=O)c3ccccc3C)c(O)c2)cc1O,> 50 µM (inactive)
6,N#Cc1c(Cl)cccc1Oc1ccc(S(=O)(=O)N2CCC(O)CC2)cc1,19.6 µM
7,O=C(Nc1ncc2c(n1)-c1ccccc1CC2)C1CC1,17.5 µM
8,Cc1cccc(NC(=O)c2nc(N3CCSCC3)c3cnn(C)c3n2)c1,> 50 µM (inactive)
9,O=C(c1ccco1)N1CCN=C1SCc1ccccc1F,> 50 µM (inactive)
10,O=C(COc1cccc2ccc(N3CCC(Cc4ccccc4)CC3)nc12)NCc1ccc(F)cc1,23.1 µM
11,CC1CCc2c(sc3ncnc(OCc4cccc([N+](=O)[O-])c4)c23)C1 (configuration not stated),> 50 µM (inactive)
12,O=C(OCc1cccc(Cl)c1)c1ccc2ccccc2n1,> 50 µM (inactive)
13,Cc1ccc(Cn2cc(-c3noc(-c4ccc[nH]4)n3)nn2)cc1,23.8 µM
14,Cc1ccc2oc(=O)c(S(=O)(=O)N3CCCCC3)cc2c1,12.7 µM
15,N#C/C(=C\c1ccc(-c2cc(Cl)ccc2Cl)o1)c1nnc2n1CCCCC2,> 50 µM (inactive)
16,Cc1ccc2[nH]c(=O)c(CN(Cc3cccnc3)C(=O)c3cccc(Cl)c3)cc2c1,> 50 µM (inactive)
17,c1csc(CCN2CCc3nc4cccnc4cc3C2)c1,> 50 µM (inactive)
18,CCc1c(Cl)c(O)c(Cl)c(O)c1C(=O)O[C@H]1C(C)O[C@@H](OC/C2=C\C=C\CC(O)/C(C)=C/C(CC)C(O[C@@H]3OC(C)(C)[C@H](O)C(OC(=O)C(C)C)[C@@H]3O)/C(C)=C/C(C)=C/CC(C(C)O)OC2=O)[C@@H](OC)C1O (some centres not stated),> 50 µM (inactive)
19,O=S(=O)(Cc1nnc(-c2ccccc2C(F)(F)F)o1)c1ccc(Cl)cc1,> 50 µM (inactive)
20,Cc1ccc(NC(=O)c2sc(=S)n(CCc3ccccc3)c2N)cc1,1.74 µM
21,CC1=C[C@H]2N(c3ccc(C)cc31)[C@H](C(=O)c1cccs1)[C@@H](C(=O)c1ccc(F)cc1)[C@]21C(=O)Nc2ccccc21,> 50 µM (inactive)
22,C=C1CCC2[C@](C)(CCC[C@]2(C)C(=O)OC)[C@H]1CCc1ccoc1/C=C/C(=O)O (some centres not stated),> 50 µM (inactive)
23,Cc1cc(/C=C2/C(=N)N3C(c4ccccc4)=CSC3=NC2=O)c(C)n1-c1ccc(F)cc1,> 50 µM (inactive)
24,Cn1c2ccccc2c(=O)c2c(=O)n(Cc3ccccc3)c(-c3ccco3)nc21,1.56 µM

row,SMILES,IC50
1,COc1cccc(-c2nc3cnccn3c2NCc2ccc3c(c2)OCO3)c1,> 50 µM (inactive)
2,CNc1nc2c(c(=O)n1Cc1ccccc1)CN(C(=O)c1ccc(CN)cc1)CC2,42.8 µM
3,Cc1ccc(-c2c(C(=O)Nc3ccc(S(N)(=O)=O)cc3)oc(=O)c3ccccc23)cc1,29.2 µM
4,COc1ccc(-c2cc3nc([C@H](C)NC(=O)Cc4cccc(F)c4)nn3cn2)cc1,3.92 µM
5,COc1cc(Cl)ccc1Oc1ncnc2sc(C)c(C)c12,> 50 µM (inactive)
6,CCOc1ccccc1C(=O)NCC(=O)OC(C(=O)c1c[nH]c2ccccc12)c1ccccc1 (configuration not stated),> 50 µM (inactive)
7,O=C(Nc1ccc(Cl)cc1F)c1cc(-c2ccccn2)n[nH]1,0.445 µM
8,Cc1ncc(CO)c2c1Oc1nc(-c3cccc(Cl)c3)nc(SCC(=O)N3CCCCC3)c1C2,> 50 µM (inactive)
9,O=C(Cn1nc2c3c4c(sc3ncn2c1=O)CCCCC4)Nc1ccc(Cl)cc1F,1.49 µM
10,COc1ccc(C(=O)Nc2nc3n(n2)C(c2ccccc2)CC(=O)N3)cc1 (configuration not stated),10.7 µM
11,O=C(COc1ccc(Cl)cc1)Nc1noc(-c2ccccc2)n1,25.8 µM
12,CCCc1nc2sc3c(NCCc4ccc(OC)c(OC)c4)ncnc3c2c2c1CCC2,> 50 µM (inactive)
13,O=C1C/C(=C\c2cccc(Cl)c2)Cc2ccccc21,> 50 µM (inactive)
14,CCc1ccc2[nH]c(=O)c(CN(CCc3ccc(OC)c(OC)c3)C(=O)Nc3ccccc3)cc2c1,> 50 µM (inactive)
15,Cc1cc(O)c2c3c(c(O)cc2c1)C(=O)c1c(O)cccc1C3=O,> 50 µM (inactive)
16,O=C(c1ccc2occc2c1)N1CCC(S(=O)(=O)c2ccc(-c3ccco3)cc2)CC1,> 50 µM (inactive)
17,CSc1ccc(CNCc2c(C(=O)O)n(Cc3ccccc3)c3cc(C)ccc23)cc1,> 50 µM (inactive)
18,Cc1c(-c2nn3c(-c4ccco4)nnc3s2)cccc1[N+](=O)[O-],2.6 µM
19,Cc1ccc(-c2nc(-c3ccccc3)c(S(=O)(=O)CC(=O)Nc3ccc(C)c(C)c3)[nH]2)cc1,> 50 µM (inactive)
20,CC(C)(C)C(=O)Nc1ccc(SCc2nnc(-c3ccccc3)o2)cc1,> 50 µM (inactive)
21,Cc1ccccc1NC(=O)c1cc(S(=O)(=O)N2CCCCCC2)ccc1Cl,23.8 µM
22,CCCC(=O)c1c[nH]c(C(=O)NCc2ccc(F)cc2)c1,17.4 µM
23,COc1ccc(CNC(=O)c2ccccc2N2C(=O)N3CCc4c([nH]c5ccccc45)[C@@]3(C)C2=O)cc1,27.3 µM
